Data: US12473304B2, “Heterocyclic PAD4 inhibitors” (BRISTOL-MYERS SQUIBB COMPANY, priority 2020, dated 2025)

Target: human PAD4 (hPAD4) (Homo sapiens (Human), UniProt Q9UM07)
Experiment: RFMS Human PAD4 Functional Assay 1
Assay type: biochemical
Conditions: RFMS assay 1; 5 nM hPAD4, 250 μM BAEE substrate, 50 μM calcium, 37° C.
Summary of the method: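 Recombinant hPAD4 (5 nM) was preincubated with compound (top 50 μM, 0.5% DMSO) for 30 min at 37 °C, then reacted with 250 μM BAEE for 90 min at 37 °C in pH 7.5 HEPES buffer with 50 μM calcium and 5 μM TPEN. Product was derivatized with phenyl glyoxal and quantified by RapidFire MS.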

Sequence of human PAD4 (hPAD4) (Q9UM07 whole entry): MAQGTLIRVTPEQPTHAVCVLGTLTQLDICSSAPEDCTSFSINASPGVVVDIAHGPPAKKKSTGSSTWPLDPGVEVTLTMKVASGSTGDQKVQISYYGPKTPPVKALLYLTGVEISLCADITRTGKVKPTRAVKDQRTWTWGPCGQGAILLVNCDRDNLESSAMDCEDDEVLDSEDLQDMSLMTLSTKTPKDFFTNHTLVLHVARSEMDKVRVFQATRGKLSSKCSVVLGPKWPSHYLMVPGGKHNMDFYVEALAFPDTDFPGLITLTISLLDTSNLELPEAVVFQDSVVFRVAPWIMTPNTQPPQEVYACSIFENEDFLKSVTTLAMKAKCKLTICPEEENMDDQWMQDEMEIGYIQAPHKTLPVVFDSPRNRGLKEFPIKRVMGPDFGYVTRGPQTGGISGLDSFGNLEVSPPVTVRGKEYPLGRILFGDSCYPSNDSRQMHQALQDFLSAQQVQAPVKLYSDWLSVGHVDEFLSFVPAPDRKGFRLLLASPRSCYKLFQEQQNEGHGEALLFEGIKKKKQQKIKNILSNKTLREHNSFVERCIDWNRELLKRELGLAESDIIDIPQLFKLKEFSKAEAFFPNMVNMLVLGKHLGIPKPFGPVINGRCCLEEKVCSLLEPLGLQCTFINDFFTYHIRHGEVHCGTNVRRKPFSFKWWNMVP

IC50 [nM]	Compound
180	COC(=O)N1CCC(c2cccc3cc(-c4nn5cc(C(=O)N6C[C@H](N)C[C@@H](F)C6)ccc5c4C)n(CC4CC4)c23)CC1 [Example 469, Methyl 4-(2-(6-((3R,5R)-3-amino-5-fluoropiperidine-1-carbonyl)-3-methylpyrazolo[1,5-a]pyridin-2-yl)-1-(cyclopropylmethyl)-1H-indol-7-yl)piperidine-1-carboxylate]
10	COC(=O)N1CCC(c2cccc3cc(-c4nn5cc(C(=O)N6CC7CCC6[C@@H]7N)ccc5c4C)n(CC4CC4)c23)CC1 (stereo partly drawn) [Example 470, Methyl 4-(2-(6-((7R)-7-amino-2-azabicyclo[2.2.1]heptane-2-carbonyl)-3-methylpyrazolo[1,5-a]pyridin-2-yl)-1-(cyclopropylmethyl)-1H-indol-7-yl)piperidine-1-carboxylate]
90	Cc1c(-c2cc3cccc(C4CCN(C(=O)[C@@H](C)O)CC4)c3n2CC2CC2)nn2cc(C(=O)N3CCC[C@@H](N)C3)ccc12 [Example 471, (R)-1-(4-(2-(6-((R)-3-aminopiperidine-1-carbonyl)-3-methylpyrazolo[1,5-a]pyridin-2-yl)-1-(cyclopropylmethyl)-1H-indol-7-yl)piperidin-1-yl)-2-hydroxypropan-1-one]
60	Cc1c(-c2cc3cccc(C4CCN(C(=O)[C@@H](C)O)CC4)c3n2CC2CC2)nn2cc(C(=O)N3C[C@H](N)C[C@@H](F)C3)ccc12 [Example 472, (R)-1-(4-(2-(6-((3R,5R)-3-amino-5-fluoropiperidine-1-carbonyl)-3-methylpyrazolo[1,5-a]pyridin-2-yl)-1-(cyclopropylmethyl)-1H-indol-7-yl)piperidin-1-yl)-2-hydroxypropan-1-one]
3	Cc1c(-c2cc3cccc(C4CCN(C(=O)[C@@H](C)O)CC4)c3n2CC2CC2)nn2cc(C(=O)N3CC4CCC3[C@@H]4N)ccc12 (stereo partly drawn) [Example 473, (2R)-1-(4-(2-(6-((7R)-7-Amino-2-azabicyclo[2.2.1]heptane-2-carbonyl)-3-methylpyrazolo[1,5-a]pyridin-2-yl)-1-(cyclopropylmethyl)-1H-indol-7-yl)piperidin-1-yl)-2-hydroxypropan-1-one]
70	Cc1c(-c2cc3cccc(C4CCN(C(=O)c5cccs5)CC4)c3n2CC2CC2)nn2cc(C(=O)N3C[C@H](N)C[C@@H](F)C3)ccc12 [Example 474, ((3R,5R)-3-Amino-5-fluoropiperidin-1-yl)(2-(1-(cyclopropylmethyl)-7-(1-(thiophene-2-carbonyl)piperidin-4-yl)-1H-indol-2-yl)-3-methylpyrazolo[1,5-a]pyridin-6-yl)methanone]
20	Cc1c(-c2cc3cccc(C4CCN(C(=O)c5cccs5)CC4)c3n2CC2CC2)nn2cc(C(=O)N3CC4CCC3[C@@H]4N)ccc12 (stereo partly drawn) [Example 475, (4-(2-(6-((7R)-7-Amino-2-azabicyclo[2.2.1]heptane-2-carbonyl)-3-methylpyrazolo[1,5-a]pyridin-2-yl)-1-(cyclopropylmethyl)-1H-indol-7-yl)piperidin-1-yl)(thiophen-2-yl)methanone]
20	CC(=O)N1CCC(c2cccc3cc(-c4nn5cc(C(=O)N6CC7CCC6[C@@H]7N)ccc5c4C)n(CC4CC4)c23)CC1 (stereo partly drawn) [Example 477, 1-(4-(2-(6-((7R)-7-Amino-2-azabicyclo[2.2.1]heptane-2-carbonyl)-3-methylpyrazolo[1,5-a]pyridin-2-yl)-1-(cyclopropylmethyl)-1H-indol-7-yl)piperidin-1-yl)ethan-1-one]
130	COCC(=O)N1CCC(c2cccc3cc(-c4nn5cc(C(=O)N6C[C@H](N)C[C@@H](F)C6)ccc5c4C)n(CC4CC4)c23)CC1 [Example 478, 1-(4-(2-(6-((3R,5R)-3-Amino-5-fluoropiperidine-1-carbonyl)-3-methylpyrazolo[1,5-a]pyridin-2-yl)-1-(cyclopropylmethyl)-1H-indol-7-yl)piperidin-1-yl)-2-methoxyethan-1-one]
390	CC(=O)N1CCC(c2cccc3cc(-c4nn5cc(C(=O)N6CCC[C@@H](N)C6)ccc5c4C)n(CC4CC4)c23)CC1 [Example 479, (R)-1-(4-(2-(6-(3-Aminopiperidine-1-carbonyl)-3-methylpyrazolo[1,5-a]pyridin-2-yl)-1-(cyclopropylmethyl)-1H-indol-7-yl)piperidin-1-yl)ethan-1-one]
140	COCC(=O)N1CCC(c2cc(F)cc3cc(-c4nn5cc(C(=O)N6CCC[C@@H](N)C6)cc(OC)c5c4C)n(CC4CC4)c23)CC1 [Example 480, (R)-1-(4-(2-(6-(3-aminopiperidine-1-carbonyl)-4-methoxy-3-methylpyrazolo[1,5-a]pyridin-2-yl)-1-(cyclopropylmethyl)-5-fluoro-1H-indol-7-yl)piperidin-1-yl)-2-Methoxyethan-1-one]
120	COCC(=O)N1CCC(c2cc(F)cc3cc(-c4nn5cc(C(=O)N6C[C@H](N)C[C@@H](F)C6)cc(OC)c5c4C)n(CC4CC4)c23)CC1 [Example 481, 1-(4-(2-(6-((3R,5R)-3-Amino-5-fluoropiperidine-1-carbonyl)-4-methoxy-3-methylpyrazolo[1,5-a]pyridin-2-yl)-1-(cyclopropylmethyl)-5-fluoro-1H-indol-7-yl)piperidin-1-yl)-2-methoxyethan-1-one]
60	COc1cc(C(=O)N2C[C@H](N)C[C@@H](F)C2)cn2nc(-c3cc4cc(F)cc(C5CCN(C(C)=O)CC5)c4n3CC3CC3)c(C)c12 [Example 482, 1-(4-(2-(6-((3R,5R)-3-Amino-5-fluoropiperidine-1-carbonyl)-4-methoxy-3-methylpyrazolo[1,5-a]pyridin-2-yl)-1-(cyclopropylmethyl)-5-fluoro-1H-indol-7-yl)piperidin-1-yl)ethan-1-one]
150	COc1cc(C(=O)N2CCC[C@@H](N)C2)cn2nc(-c3cc4cc(F)cc(C5CCN(C(C)=O)CC5)c4n3CC3CC3)c(C)c12 [Example 483, (R)-1-(4-(2-(6-(3-Aminopiperidine-1-carbonyl)-4-methoxy-3-methylpyrazolo[1,5-a]pyridin-2-yl)-1-(cyclopropylmethyl)-5-fluoro-1H-indol-7-yl)piperidin-1-yl)ethan-1-one]
150	Cc1c(-c2cc3cc(F)cc(C4CCN(C(=O)[C@H]5CC[C@H](O)CC5)CC4)c3n2CC2CC2)nn2cc(C(=O)N3CCC[C@@H](N)C3)ccc12 [Example 484, ((R)-3-Aminopiperidin-1-yl)(2-(1-(cyclopropylmethyl)-5-fluoro-7-(1-((1r,4r)-4-hydroxycyclohexane-1-carbonyl)piperidin-4-yl)-1H-indol-2-yl)-3-methylpyrazolo[1,5-a]pyridin-6-yl)methanone]
150	Cc1c(-c2cc3cc(F)cc(C4CCN(C(=O)[C@H]5CC[C@@H](O)CC5)CC4)c3n2CC2CC2)nn2cc(C(=O)N3CCC[C@@H](N)C3)ccc12 [Example 485, ((R)-3-Aminopiperidin-1-yl)(2-(1-(cyclopropylmethyl)-5-fluoro-7-(1-((1s,4s)-4-hydroxycyclohexane-1-carbonyl)piperidin-4-yl)-1H-indol-2-yl)-3-methylpyrazolo[1,5-a]pyridin-6-yl)methanone]
70	Cc1c(-c2cc3cc(F)cc(C4CCN(C(=O)[C@H]5CC[C@@H](O)CC5)CC4)c3n2CC2CC2)nn2cc(C(=O)N3C[C@H](N)C[C@@H](F)C3)ccc12 [Example 486, ((3R,5R)-3-Amino-5-fluoropiperidin-1-yl)(2-(1-(cyclopropylmethyl)-5-fluoro-7-(1-((1s,4s)-4-hydroxycyclohexane-1-carbonyl)piperidin-4-yl)-1H-indol-2-yl)-3-methylpyrazolo[1,5-a]pyridin-6-yl)methanone]
200	Cc1c(-c2cc3cc(F)cc(C4CCN(C(=O)[C@H]5CC[C@H](O)CC5)CC4)c3n2CC2CC2)nn2cc(C(=O)N3C[C@H](N)C[C@@H](F)C3)ccc12 [Example 487, ((3R,5R)-3-Amino-5-fluoropiperidin-1-yl)(2-(1-(cyclopropylmethyl)-5-fluoro-7-(1-((1r,4r)-4-hydroxycyclohexane-1-carbonyl)piperidin-4-yl)-1H-indol-2-yl)-3-methylpyrazolo[1,5-a]pyridin-6-yl)methanone]
110	COC(C)(C)C(=O)N1CCC(c2cc(F)cc3cc(-c4nn5cc(C(=O)N6CCC[C@@H](N)C6)ccc5c4C)n(CC4CC4)c23)CC1 [Example 493, (R)-1-(4-(2-(6-(3-Aminopiperidine-1-carbonyl)-3-methylpyrazolo[1,5-a]pyridin-2-yl)-1-(cyclopropylmethyl)-5-fluoro-1H-indol-7-yl)piperidin-1-yl)-2-methoxy-2-methylpropan-1-one]
330	Cc1c(-c2cc3cc(F)cc(C4CCN(C(=O)CC(C)C)CC4)c3n2CC2CC2)nn2cc(C(=O)N3C[C@H](N)C[C@@H](F)C3)ccc12 [Example 495, 1-(4-(2-(6-((3R,5R)-3-Amino-5-fluoropiperidine-1-carbonyl)-3-methylpyrazolo[1,5-a]pyridin-2-yl)-1-(cyclopropylmethyl)-5-fluoro-1H-indol-7-yl)piperidin-1-yl)-3-methylbutan-1-one]
40	CO[C@H](C)C(=O)N1CCC(c2cc(F)cc3cc(-c4nn5cc(C(=O)N6CCC[C@@H](N)C6)ccc5c4C)n(CC4CC4)c23)CC1 [Example 497, (R)-1-(4-(2-(6-((R)-3-Aminopiperidine-1-carbonyl)-3-methylpyrazolo[1,5-a]pyridin-2-yl)-1-(cyclopropylmethyl)-5-fluoro-1H-indol-7-yl)piperidin-1-yl)-2-methoxypropan-1-one]
70	CO[C@H](C)C(=O)N1CCC(c2cc(F)cc3cc(-c4nn5cc(C(=O)N6C[C@H](N)C[C@@H](F)C6)ccc5c4C)n(CC4CC4)c23)CC1 [Example 498, (R)-1-(4-(2-(6-((3R,5R)-3-Amino-5-fluoropiperidine-1-carbonyl)-3-methylpyrazolo[1,5-a]pyridin-2-yl)-1-(cyclopropylmethyl)-5-fluoro-1H-indol-7-yl)piperidin-1-yl)-2-methoxypropan-1-one]
